Read-outs that look alike come from different tables or passages of the source.

One data set in a line: Stability in plasma. The format is in vitro ADME. Particulars: 37 °C. The procedure:
Tested compounds (final concentration of 5 µM, 0.5% DMSO) were incubated for 4 h at 37 °C in human and mouse plasma, respectively. Aliquots were taken at different time points (0, 30, 120 and 240 min) and reaction was terminated by addition of a MeCN/MeOH (2:1) mixture, containing internal standard (diclofenac). Samples were then centrifuged (at 4500 rpm, at 4 °C, for 30 min) and resulting supernatants were subjected to LC-MS/MS analysis. The same procedure was followed for controls used in the assay: propranolol (both species), benfluorex (mouse) and eucatropine (human), respectively.
(§1) All ADME samples were analysed on a Sciex API 4000 or Sciex API4500 Triple Quadrupole Mass Spectrometer (Sciex, Framingham, MA, USA) coupled to a UHPLC System (Shimadzu Nexera X2; Shimadzu, Kyoto, Japan). Samples were injected onto an UPLC column (HALO2 C18, 2.1 × 20 mm, 2 µm or Phenomenex Luna Omega Polar C18, 30 × 2.1 mm, 1.6 µm) and eluted with a gradient at temperature of 50 °C. The mobile phase was composed of acetonitrile (with 0.1% formic acid) and 0.1% formic acid in deionised water. A total run time was 1 or 1.5 min, with the flow rate of 0.7 ml/min (under gradient conditions). A positive ion mode with turbo spray, an ion source temperature of 500 °C and a dwell time of 150 ms were utilised for mass spectrometric detection. Multiple reaction monitoring (MRM) was used at the specific transitions for each compound/control tested: compound 5c: 361.9 → 304.9; compound 5d: 344.8 → 287.9; compound 5e: 349.8 → 292.9; compound 5 g: 350.8 → 293.9; compound 5 h: 344.0 → 286.9; compound 6a: 276.9 → 220.0; compound 5 b: 319.0 → 262.0; compound 6 b: 302.1 → 245.1; compound 6c: 344.9 → 288.0; compound 6d: 333.0 → 276.0; compound 6e: 316.1 → 259.0; compound 6f: 327.1 → 270.0; compound 6 g: 377.1 → 320.1; testosterone: 289.3→ 97.1; propranolol: 260.1 → 182.8; caffeine: 195.2 → 138.1; acebutolol: 337.2 → 116.2, nicardipine: 480.2 → 315.0; verapamil: 455.4 → 165.1; amprenavir: 506.2 → 245.4; diclofenac: 296.1 → 213.7 or 296.2 → 215.3; eucatropine: 292.2 → 109.1; benfluorex: 352.1 → 230.3, and warfarin: 309.2 → 163.2

For the next data set, the system named is MDCKII-hMDR1 cells. Nature of the data set: MDCKII-MDR1 permeability and P-glycoprotein substrate assay. The format is in vitro ADME, canine cells over-expressing human MDR1. The following applies: without P-gp inhibitor. As for the experimental part: Permeability and P-glycoprotein substrate assessment was done on MDCKII-hMDR1, Madin-Darby canine epithelial cells over-expressing human MDR1 gene, coding for P-glycoprotein.
Cells were prepared for transport studies by seeding on 96-well cell culture inserts (Millipore, MA, USA) in a concentration of 0.25 × 10^6 cells per ml. The cells were fed with fresh medium 24 h post seeding and cultured to confluence for 3 days before use. On the day of experiment, the cell monolayers were washed and equilibrated with transport medium (DPBS, pH 7.4 containing 1% DMSO) with or without P-gp specific inhibitor, elacridar (2 µM) for 45 min (37 °C, 5% CO2, 95% humidity). Test compound solution consisted of test substance (10 μM) in D-PBS medium containing lucifer yellow (100 μM) and 1% DMSO. Transport assays were conducted in apical to basolateral (A2B) and basolateral to apical (B2A) directions, respectively. Monolayers were incubated with the compound solution for 60 min at 37 °C under gentle agitation. Apical and basolateral compartments were sampled at the end of the transport experiment, while donor solutions were also sampled at the beginning of the experiment in order to determine initial concentration. Test substance concentrations in both compartments were determined by LC-MS/MS. There were several controls used in the assay: 1) amprenavir (0.5 μM) served as a low permeable control, being also a P-gp substrate; 2) diclofenac (10 μM) was used as a high permeable control; 3) Lucifer yellow, a fluorescent marker for the paracellular membrane transport, was used as a control of cell monolayer integrity.
as §1

Data set [1] can be described thus: Plasma protein binding, equilibrium dialysis. Particulars: for fraction unbound at 4 h, 5 µM: equilibrium dialysis 4 h, 37 °C; for recovery at 4 h, 5 µM: recovery in PPB experiment (value in brackets). Type of data set: in vitro ADME. The procedure:
The extent of binding to plasma proteins was assessed using equilibrium dialysis method. Plasma (human and mouse) was spiked with test compounds and three controls (nicardipine and verapamil in both species, acebutolol in human and caffeine in mouse plasma) to obtain final concentration of 5 µM (0.5%DMSO). Hydrated membranes were inserted into equilibrium dialysis unit (HT Dialysis) according to manufacturer’s instructions. The dialysate side was then loaded with appropriate volume of buffer, while the same volume of spiked plasma was added into sample side of the well. Incubation lasted 4 h at 37 °C with gentle shaking. Afterwards, protein precipitation was done by mixing matrix matched aliquot of plasma or buffer with 3 volumes of MeCN/MeOH (2:1) mixture, containing internal standard (diclofenac). After centrifugation (at 4500 rpm, at 4 °C, for 30 min) resulting supernatants were subjected to LC-MS/MS.
as §1
Background: Equilibrium dialysis compares concentrations on both sides of a semipermeable membrane.

In the case of `N#Cc1ccc(-c2nc3cc(C4=NCCCN4)ccc3[nH]2)cc1` [Compound 6b, 2–(4-Cyanophenyl)-5(6)–(3,4,5,6-tetrahydropyrimidin-1-ium-2-yl)benzimidazole chloride], the amount remaining at 4 h, 5 µM in “Stability in plasma” (human plasma) is 98%; in “Stability in plasma” (mouse plasma), 119%. The “MDCKII-MDR1 Efflux ratio” value in the data set on MDCKII-hMDR1 cells is listed as 1.13. For the same compound, the fraction unbound at 4 h, 5 µM in data set [1] (human plasma, read-out: PPB % bound, Human (converted)) was 0.457; in data set [1] (mouse plasma, read-out: PPB % bound, Mouse (converted)), 0.365. Further, the recovery at 4 h, 5 µM in data set [1] (human plasma) worked out at 91%; in data set [1] (mouse plasma), 87%.

Source of the values: PMC7801115, “Preclinical in vitro screening of newly synthesised amidino substituted benzimidazoles and benzothiazoles” (Journal of Enzyme Inhibition and Medicinal Chemistry, 2021).
